Measured values from ChEMBL document CHEMBL4373723 (J Med Chem, 2019).
Bridge positions count the residues as written; N and C are the ends. Peptide text beside a SMILES is read from it. I, II: the chains in the order shown.

Experiments:
Frizzled-7 [1] = target: T1, Frizzled-7 (Homo sapiens, UniProt O75084); format: cell-based; conditions: cho
Frizzled-7 [2] = target: T1, Frizzled-7; test: biochemical; format: cell-based, CHO; conditions: read-out: Kd
Frizzled-7 [3] = target: T1, Frizzled-7; test: Inhibition of Frizzled-7 in HEK293 cells expressing Wnt assessed as reduction in Wnt signaling by firefly luciferase reporter gene assay; format: cell-based
Frizzled-7 [4] = target: T1, Frizzled-7; conditions: CHO
Description: Binding affinity to recombinant human Frizzled-7 (Gln33 to Leu185 residues)/human IgG1 chimeric protein expressed in CHO cells assessed as association rate constant by SPR assay

Frizzled-7 [5] = target: T1, Frizzled-7; test: Binding affinity to recombinant human Frizzled-7 (Gln33 to Leu185 residues)/human IgG1 chimeric protein expressed in CHO cells assessed as reduction in interaction of TcdB with FZD7 incubated for 1 hr by competition ELISA; format: cell-based
Frizzled-8 = Frizzled-8 (Homo sapiens, UniProt Q9H461); test: Binding affinity to recombinant human Frizzled-8 (Ala25 to Pro172 residues)/human IgG1 chimeric protein expressed in CHO cells […] by SPR assay
Frizzled-9 = target: T2, Frizzled-9 (Homo sapiens, UniProt O00144); test: Binding affinity to Frizzled-9 CRD (unknown origin)
T2 sequence (O00144 whole entry): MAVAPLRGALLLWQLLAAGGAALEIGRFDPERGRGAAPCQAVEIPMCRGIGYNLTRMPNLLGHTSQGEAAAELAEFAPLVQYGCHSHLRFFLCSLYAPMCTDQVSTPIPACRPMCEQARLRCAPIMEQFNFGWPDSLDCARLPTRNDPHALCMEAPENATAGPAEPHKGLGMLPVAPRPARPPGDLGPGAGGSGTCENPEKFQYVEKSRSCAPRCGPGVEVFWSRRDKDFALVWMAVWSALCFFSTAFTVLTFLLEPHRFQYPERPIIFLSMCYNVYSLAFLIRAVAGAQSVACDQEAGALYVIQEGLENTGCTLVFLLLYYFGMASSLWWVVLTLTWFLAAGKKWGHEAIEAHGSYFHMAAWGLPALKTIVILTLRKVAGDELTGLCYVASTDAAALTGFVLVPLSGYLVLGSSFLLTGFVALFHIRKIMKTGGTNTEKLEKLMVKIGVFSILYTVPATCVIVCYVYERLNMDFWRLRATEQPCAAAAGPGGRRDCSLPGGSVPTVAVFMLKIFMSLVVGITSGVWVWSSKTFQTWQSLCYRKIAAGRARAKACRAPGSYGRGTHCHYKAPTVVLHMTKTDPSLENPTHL

[6] = Binding affinity to recombinant human/mouse Frizzled-2 (Gln29 to Leu168 residues)/human IgG1 chimeric protein expressed in mouse NS0 cells by SPR assay
[7] = Binding affinity to recombinant human/mouse Frizzled-2 (Gln29 to Leu168 residues)/human IgG1 chimeric protein expressed in mouse NS0 cells assessed as reduction in interaction of TcdB with FZD7 incubated for 1 hr by competition ELISA; format: cell-based
Frizzled-1 = Frizzled-1 (Homo sapiens, UniProt Q9UP38); test: Binding affinity to recombinant human Frizzled-1 (Gln73 to His253 residues)/human IgG1 chimeric protein expressed in mouse NS0 cells by SPR assay
Frizzled-4 = target: T3, Frizzled-4 (Homo sapiens, UniProt Q9ULV1); test: Binding affinity to recombinant human Frizzled-4 (Phe37 to Glu180 residues)/human IgG1 chimeric protein expressed in mouse NS0 cells by SPR assay
T3 sequence (Q9ULV1 whole entry): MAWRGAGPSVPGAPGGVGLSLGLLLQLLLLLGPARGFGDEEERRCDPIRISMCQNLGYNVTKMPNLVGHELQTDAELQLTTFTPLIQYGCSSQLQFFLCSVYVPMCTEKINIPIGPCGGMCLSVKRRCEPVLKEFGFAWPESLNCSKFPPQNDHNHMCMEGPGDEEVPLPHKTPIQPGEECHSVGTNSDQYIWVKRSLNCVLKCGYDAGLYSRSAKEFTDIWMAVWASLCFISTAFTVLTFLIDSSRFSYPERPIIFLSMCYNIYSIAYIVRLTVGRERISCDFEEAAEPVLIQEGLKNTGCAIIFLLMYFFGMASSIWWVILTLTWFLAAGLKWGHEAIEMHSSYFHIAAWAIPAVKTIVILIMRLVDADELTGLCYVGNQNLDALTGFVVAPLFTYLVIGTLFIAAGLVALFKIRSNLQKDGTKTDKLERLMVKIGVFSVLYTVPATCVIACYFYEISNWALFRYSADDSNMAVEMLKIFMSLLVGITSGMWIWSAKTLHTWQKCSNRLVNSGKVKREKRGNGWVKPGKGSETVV

Frizzled-5 = Frizzled-5 (Homo sapiens, UniProt Q13467); test: Binding affinity to recombinant human Frizzled-5 (Ala27 to Pro167 residues)/human IgG1 chimeric protein expressed in mouse NS0 cells by SPR assay
Frizzled-10 = target: T4, Frizzled-10 (Homo sapiens, UniProt Q9ULW2); test: Binding affinity to Frizzled-10 CRD (unknown origin)
T4 sequence (Q9ULW2 whole entry): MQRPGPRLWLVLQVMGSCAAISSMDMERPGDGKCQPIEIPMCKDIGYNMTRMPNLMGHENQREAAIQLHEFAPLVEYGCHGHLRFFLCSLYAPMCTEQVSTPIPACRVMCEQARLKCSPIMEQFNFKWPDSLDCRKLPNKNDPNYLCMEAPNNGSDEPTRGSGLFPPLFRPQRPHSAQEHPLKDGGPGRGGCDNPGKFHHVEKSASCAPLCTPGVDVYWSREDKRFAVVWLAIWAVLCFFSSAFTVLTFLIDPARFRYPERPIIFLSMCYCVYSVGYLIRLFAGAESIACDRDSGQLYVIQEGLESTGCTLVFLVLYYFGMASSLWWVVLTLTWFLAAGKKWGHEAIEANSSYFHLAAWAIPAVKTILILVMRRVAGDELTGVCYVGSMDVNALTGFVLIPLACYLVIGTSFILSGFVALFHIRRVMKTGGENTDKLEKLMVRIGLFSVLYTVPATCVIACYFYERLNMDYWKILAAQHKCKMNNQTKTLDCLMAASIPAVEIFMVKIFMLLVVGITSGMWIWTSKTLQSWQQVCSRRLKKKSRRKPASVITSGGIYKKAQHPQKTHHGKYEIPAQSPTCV

[8] = 40 min, 20 µM
[9] = mouse, serum, 24 h, 200 µM
[10] = 40 min, 20 µM; remark: listed apart in the source
[11] = Stability in presence of TCEP assessed as disulfide reduction at 20 uM measured over 40 mins at 37 degC by LC-MS analysis; format: physicochemical

Chain of Frizzled-5 (Q13467 whole entry): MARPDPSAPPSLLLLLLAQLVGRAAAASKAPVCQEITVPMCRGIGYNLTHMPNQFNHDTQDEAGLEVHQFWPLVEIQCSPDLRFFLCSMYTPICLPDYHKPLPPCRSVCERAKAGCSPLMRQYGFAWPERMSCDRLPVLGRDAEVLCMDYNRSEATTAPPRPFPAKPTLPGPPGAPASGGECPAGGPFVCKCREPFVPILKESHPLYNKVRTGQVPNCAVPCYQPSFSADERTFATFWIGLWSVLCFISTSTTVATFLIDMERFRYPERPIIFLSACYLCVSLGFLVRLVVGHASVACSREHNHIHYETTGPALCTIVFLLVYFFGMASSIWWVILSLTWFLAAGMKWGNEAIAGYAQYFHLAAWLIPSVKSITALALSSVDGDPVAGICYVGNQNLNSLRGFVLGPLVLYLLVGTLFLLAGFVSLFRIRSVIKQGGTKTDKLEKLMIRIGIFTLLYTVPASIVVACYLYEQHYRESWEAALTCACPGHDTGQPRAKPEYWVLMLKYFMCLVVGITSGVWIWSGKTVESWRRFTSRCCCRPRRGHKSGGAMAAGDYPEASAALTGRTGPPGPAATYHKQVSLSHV
Chain of Frizzled-1 (Q9UP38 whole entry): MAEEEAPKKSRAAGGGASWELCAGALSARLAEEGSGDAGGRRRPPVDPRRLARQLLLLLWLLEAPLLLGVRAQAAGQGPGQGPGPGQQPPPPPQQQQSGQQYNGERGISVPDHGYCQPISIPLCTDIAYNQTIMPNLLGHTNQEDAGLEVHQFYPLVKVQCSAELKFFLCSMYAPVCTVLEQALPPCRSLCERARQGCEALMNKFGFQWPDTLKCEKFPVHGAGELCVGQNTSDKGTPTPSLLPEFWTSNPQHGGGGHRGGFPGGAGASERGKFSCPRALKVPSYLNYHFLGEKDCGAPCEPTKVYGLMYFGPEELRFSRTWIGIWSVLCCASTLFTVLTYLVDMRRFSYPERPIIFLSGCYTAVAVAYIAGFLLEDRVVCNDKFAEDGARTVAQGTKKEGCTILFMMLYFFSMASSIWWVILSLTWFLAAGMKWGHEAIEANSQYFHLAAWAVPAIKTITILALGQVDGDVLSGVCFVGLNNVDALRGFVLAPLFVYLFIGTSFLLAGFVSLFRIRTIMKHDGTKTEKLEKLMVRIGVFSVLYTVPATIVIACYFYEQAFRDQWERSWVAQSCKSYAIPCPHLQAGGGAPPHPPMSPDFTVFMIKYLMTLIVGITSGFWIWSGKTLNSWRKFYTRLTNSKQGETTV
Chain of Frizzled-8 (Q9H461 whole entry): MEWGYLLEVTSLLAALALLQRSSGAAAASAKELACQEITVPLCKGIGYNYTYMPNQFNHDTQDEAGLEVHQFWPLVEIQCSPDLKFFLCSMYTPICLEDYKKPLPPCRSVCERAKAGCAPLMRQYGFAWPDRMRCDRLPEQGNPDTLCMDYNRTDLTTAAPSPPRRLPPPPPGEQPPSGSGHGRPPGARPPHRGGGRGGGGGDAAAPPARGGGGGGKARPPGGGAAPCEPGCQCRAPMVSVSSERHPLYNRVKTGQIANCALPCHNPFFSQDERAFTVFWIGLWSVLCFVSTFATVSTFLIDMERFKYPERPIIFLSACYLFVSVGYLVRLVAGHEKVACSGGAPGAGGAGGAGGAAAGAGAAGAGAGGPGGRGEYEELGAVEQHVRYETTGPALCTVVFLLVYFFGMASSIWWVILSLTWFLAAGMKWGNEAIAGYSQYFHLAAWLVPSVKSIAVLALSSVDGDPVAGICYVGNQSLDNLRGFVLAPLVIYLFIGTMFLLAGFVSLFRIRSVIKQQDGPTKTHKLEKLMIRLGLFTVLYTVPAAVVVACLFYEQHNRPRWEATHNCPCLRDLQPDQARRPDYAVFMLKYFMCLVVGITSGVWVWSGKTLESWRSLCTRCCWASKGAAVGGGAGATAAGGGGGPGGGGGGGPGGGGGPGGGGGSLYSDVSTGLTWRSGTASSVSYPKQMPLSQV

| SMILES | Kd (Frizzled-7 [1]) [×10⁻³ /s] | Kd (Frizzled-7 [2]) [nM] | IC50 (Frizzled-7 [3]) [nM] | Ka (Frizzled-7 [4]) [×10⁵ /M/s] | inhibition (Frizzled-7 [5]) | Kd (Frizzled-8) | Kd (Frizzled-9) | Kd [6] [nM] | inhibition [7] | Kd (Frizzled-1) [nM] | Kd (Frizzled-4) | Kd (Frizzled-5) | Kd (Frizzled-10) | Stability [8] | Stability [9] | Stability [10] | Stability [11] |
| --- | --- | --- | --- | --- | --- | --- | --- | --- | --- | --- | --- | --- | --- | --- | --- | --- | --- |
| CC[C@H](C)[C@H](NC(=O)[C@H](Cc1cnc[nH]1)NC(=O)[C@H](CSSC[C@H](NC(=O)[C@H](Cc1c[nH]c2ccccc12)NC(=O)[C@H](CC(C)C)NC(=O)[C@H](CCCCN)NC(=O)[C@H](CC(C)C)NC(=O)[C@H](CC(=O)O)NC(=O)[C@H](CC(=O)O)NC(=O)[C@@H](NC(C)=O)[C@H](C)O)C(=O)N[C@@H](Cc1cnc[nH]1)C(=O)N[C@H](C(=O)N[C@@H](CCSC)C(=O)N[C@@H](Cc1ccc(O)cc1)C(N)=O)[C@@H](C)CC)NC(=O)[C@H](Cc1c[nH]c2ccccc12)NC(=O)[C@H](CC(C)C)NC(=O)[C@H](CCCCN)NC(=O)[C@H](CC(C)C)NC(=O)[C@H](CC(=O)O)NC(=O)[C@H](CC(=O)O)NC(=O)[C@@H](NC(C)=O)[C@H](C)O)C(=O)N[C@@H](CCSC)C(=O)N[C@@H](Cc1ccc(O)cc1)C(N)=O | 0.46 | 0.045 | 4.8 | 103 | – | – | – | – | – | – | – | – | – | – | – | – | – |
| CSCC[C@H](NC(=O)[C@@H](NC(=O)[C@H](Cc1cnc[nH]1)NC(=O)[C@H](CSSC[C@H](NC(=O)[C@H](Cc1c[nH]c2ccccc12)NC(=O)[C@H](Cc1ccccc1)NC(=O)[C@H](CCC(=O)O)NC(=O)[C@H](CC(C)C)NC(=O)[C@H](CC(=O)O)NC(=O)[C@H](CC(=O)O)NC(=O)[C@H](CO)NC(=O)[C@@H]1CCCN1C(=O)[C@H](CC(C)C)NC(C)=O)C(=O)N[C@@H](Cc1cnc[nH]1)C(=O)N[C@H](C(=O)N[C@@H](CCSC)C(=O)N[C@@H](Cc1ccc(O)cc1)C(N)=O)C(C)C)NC(=O)[C@H](Cc1c[nH]c2ccccc12)NC(=O)[C@H](Cc1ccccc1)NC(=O)[C@H](CCC(=O)O)NC(=O)[C@H](CC(C)C)NC(=O)[C@H](CC(=O)O)NC(=O)[C@H](CC(=O)O)NC(=O)[C@H](CO)NC(=O)[C@@H]1CCCN1C(=O)[C@H](CC(C)C)NC(C)=O)C(C)C)C(=O)N[C@@H](Cc1ccc(O)cc1)C(N)=O (I: Ac-LPSDDLEFWCHVMY-NH2 / II: Ac-LPSDDLEFWCHVMY-NH2; disulfide I:10-II:10) | 5.6 | 1.18 | 32 | 47.5 | Dose-dependent effect | Not Active | Not Active | 1.46 | Dose-dependent effect | 2.42 | Not Active | Not Active | Not Active | – | – | – | – |
| CSCC[C@H](NC(=O)[C@@H](NC(=O)[C@H](Cc1cnc[nH]1)NC(=O)[C@H](CSSC[C@H](NC(=O)[C@H](Cc1c[nH]c2ccccc12)NC(=O)[C@H](Cc1ccccc1)NC(=O)[C@H](CCC(=O)O)NC(=O)[C@H](CC(C)C)NC(=O)[C@H](CC(=O)O)NC(=O)[C@H](CC(=O)O)NC(=O)[C@H](CO)NC(C)=O)C(=O)N[C@@H](Cc1cnc[nH]1)C(=O)N[C@H](C(=O)N[C@@H](CCSC)C(=O)N[C@@H](Cc1ccc(O)cc1)C(N)=O)C(C)C)NC(=O)[C@H](Cc1c[nH]c2ccccc12)NC(=O)[C@H](Cc1ccccc1)NC(=O)[C@H](CCC(=O)O)NC(=O)[C@H](CC(C)C)NC(=O)[C@H](CC(=O)O)NC(=O)[C@H](CC(=O)O)NC(=O)[C@H](CO)NC(C)=O)C(C)C)C(=O)N[C@@H](Cc1ccc(O)cc1)C(N)=O (I: Ac-SDDLEFWCHVMY-NH2 / II: Ac-SDDLEFWCHVMY-NH2; disulfide I:8-II:8) | 2.3 | 0.37 | – | 61.9 | Dose-dependent effect | Not Active | Not Active | 0.99 | Dose-dependent effect | 1.12 | Not Active | Not Active | Not Active | Unstable | Stable | Unstable | Unstable |
| CC[C@H](C)[C@H](NC(=O)[C@H](Cc1cnc[nH]1)NC(=O)[C@H](CSSC[C@H](NC(=O)[C@H](Cc1c[nH]c2ccccc12)NC(=O)[C@H](CC(C)C)NC(=O)[C@H](CCC(=O)O)NC(=O)[C@H](CC(C)C)NC(=O)[C@H](CC(=O)O)NC(=O)[C@H](CC(=O)O)NC(=O)[C@H](CO)NC(C)=O)C(=O)N[C@@H](Cc1cnc[nH]1)C(=O)N[C@H](C(=O)N[C@@H](CCSC)C(=O)N[C@@H](Cc1ccc(O)cc1)C(N)=O)[C@@H](C)CC)NC(=O)[C@H](Cc1c[nH]c2ccccc12)NC(=O)[C@H](CC(C)C)NC(=O)[C@H](CCC(=O)O)NC(=O)[C@H](CC(C)C)NC(=O)[C@H](CC(=O)O)NC(=O)[C@H](CC(=O)O)NC(=O)[C@H](CO)NC(C)=O)C(=O)N[C@@H](CCSC)C(=O)N[C@@H](Cc1ccc(O)cc1)C(N)=O (I: Ac-SDDLELWCHIMY-NH2 / II: Ac-SDDLELWCHIMY-NH2; disulfide I:8-II:8) | 0.57 | 0.044 | 7.3 | 128 | – | – | – | – | – | – | – | – | – | – | – | – | – |
